According to patent US12304890B2, “R-type pyridyloxycarboxylic acid, salt and ester derivative thereof, and preparation method therefor, and herbicidal composition and application thereof” (Qingdao Kingagroot Chemical Compound Co., Ltd., priority 2018, dated 2025):

How the values were obtained:
Assay type in all cases: in vivo
Echinochloa crusgalli = experiment: Post-emergence test experiment, Echinochloa crusgalli; settings: 1000 g a.i./ha, 3 weeks in greenhouse, fresh weight inhibition
Experimental: (§1) The above described growth inhibition rate is fresh weight inhibition rate.
(§2) Post-emergence test experiment: Monocotyledonous and dicotyledonous weed seeds and main crop seeds (i. e. wheat, corn, rice, soybean, cotton, oilseed, millet and sorghum.) were put into a plastic pot loaded with soil. Then covered with 0.5-2 cm soil, the seeds were allowed to grow in good greenhouse environment. The test plants were treated at 2-3 leaf stage 2 weeks after sowing. The test compounds of the invention were dissolved with acetone respectively, then added with tween-80, and using 1.5 liters per hectare of an emulsible concentrate of methyl oleate as a synergist, and diluted by certain amount of water to certain concentration. The solution was sprayed to the plants with a sprayer. Then the plants were cultured for 3 weeks in the greenhouse, and the experiment result of weed controlling effect was listed in tables 4-5.

Digitaria sanguinalis = experiment: Post-emergence test experiment, Digitaria sanguinalis; settings: 1000 g a.i./ha, 3 weeks in greenhouse, fresh weight inhibition
Experimental: as §1, §2

[1] = system: Monocotyledonous and dicotyledonous weed seeds and main crop seeds; experiment: Post-emergence test experiment, other weeds and crops (Table 4, 1000 g a.i./ha); settings: 3 weeks in greenhouse, fresh weight inhibition
Outline: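 Weed and crop seeds (wheat, corn, rice, soybean, cotton, oilseed, millet, sorghum) sown in soil pots in a greenhouse and sprayed at 2-3 leaf stage, 2 weeks after sowing. Compound in acetone/tween-80 with methyl oleate concentrate (1.5 L/ha) as synergist. Effect recorded as fresh-weight growth inhibition rate.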

Row | SMILES | Activity level (growth inhibition rate), Echinochloa crusgalli (Echinochloa crusgalli) | Activity level (growth inhibition rate), Digitaria sanguinalis (Digitaria sanguinalis) | Activity level (growth inhibition rate), Abutilon theophrasti Medic. [1] | Activity level (growth inhibition rate), Galium aparine [1] | Activity level (growth inhibition rate), Monochoria Vaginalis [1]
1 | CC(Oc1nc(F)c(Cl)c(N)c1Cl)C(=O)[S-].CC(Oc1nc(F)c(Cl)c(N)c1Cl)C(=O)[S-].[Ca+2] (stereo not drawn) [Compound 2-2] | 5 (Level 5: the growth inhibition rate is greater than 85%) | 5 (Level 5: the growth inhibition rate is greater than 85%) | 5 (Level 5: the growth inhibition rate is greater than 85%) | 5 (Level 5: the growth inhibition rate is greater than 85%) | 5 (Level 5: the growth inhibition rate is greater than 85%)
2 | C[C@@H](Oc1nc(F)c(Cl)c(N)c1Cl)C(=O)OCc1cccc(C#N)c1 [Compound 2-335] | 5 (Level 5: the growth inhibition rate is greater than 85%) | 5 (Level 5: the growth inhibition rate is greater than 85%) | 5 (Level 5: the growth inhibition rate is greater than 85%) | 5 (Level 5: the growth inhibition rate is greater than 85%) | 5 (Level 5: the growth inhibition rate is greater than 85%)
3 | COC(=O)[C@@H](C)Oc1nc(F)c(Cl)c(N)c1C [Compound 2-29] | 5 (Level 5: the growth inhibition rate is greater than 85%) | 5 (Level 5: the growth inhibition rate is greater than 85%) | 5 (Level 5: the growth inhibition rate is greater than 85%) | 5 (Level 5: the growth inhibition rate is greater than 85%) | 5 (Level 5: the growth inhibition rate is greater than 85%)
4 | CC(Oc1nc(F)c(Cl)c(N)c1Cl)C(=O)OCc1ccc(Br)cc1 (stereo not drawn) [Compound 2-324] | 5 (Level 5: the growth inhibition rate is greater than 85%) | 5 (Level 5: the growth inhibition rate is greater than 85%) | 5 (Level 5: the growth inhibition rate is greater than 85%) | 5 (Level 5: the growth inhibition rate is greater than 85%) | 5 (Level 5: the growth inhibition rate is greater than 85%)
5 | CC(Oc1nc(F)c(Cl)c(N)c1Cl)C(=O)OCc1cccc(Cl)c1 (stereo not drawn) [Compound 2-316] | 5 (Level 5: the growth inhibition rate is greater than 85%) | 5 (Level 5: the growth inhibition rate is greater than 85%) | 5 (Level 5: the growth inhibition rate is greater than 85%) | 5 (Level 5: the growth inhibition rate is greater than 85%) | 5 (Level 5: the growth inhibition rate is greater than 85%)
6 | CC(C)SC(=O)[C@@H](C)Oc1nc(F)c(Cl)c(N)c1Cl [Compound 2-76] | 5 (Level 5: the growth inhibition rate is greater than 85%) | 5 (Level 5: the growth inhibition rate is greater than 85%) | 5 (Level 5: the growth inhibition rate is greater than 85%) | 5 (Level 5: the growth inhibition rate is greater than 85%) | 5 (Level 5: the growth inhibition rate is greater than 85%)
7 | Cc1ccccc1CSC(=O)C(C)Oc1nc(F)c(Cl)c(N)c1Cl (stereo not drawn) [Compound 2-303] | 5 (Level 5: the growth inhibition rate is greater than 85%) | 5 (Level 5: the growth inhibition rate is greater than 85%) | 5 (Level 5: the growth inhibition rate is greater than 85%) | 5 (Level 5: the growth inhibition rate is greater than 85%) | 5 (Level 5: the growth inhibition rate is greater than 85%)
8 | C[C@@H](Oc1nc(F)c(Cl)c(N)c1Cl)C(=O)OCCBr [Compound 2-278] | 5 (Level 5: the growth inhibition rate is greater than 85%) | 5 (Level 5: the growth inhibition rate is greater than 85%) | 5 (Level 5: the growth inhibition rate is greater than 85%) | 5 (Level 5: the growth inhibition rate is greater than 85%) | 5 (Level 5: the growth inhibition rate is greater than 85%)
9 | CC(C)CSC(=O)[C@@H](C)Oc1nc(F)c(Cl)c(N)c1Cl [Compound 2-80] | 5 (Level 5: the growth inhibition rate is greater than 85%) | 5 (Level 5: the growth inhibition rate is greater than 85%) | 5 (Level 5: the growth inhibition rate is greater than 85%) | 5 (Level 5: the growth inhibition rate is greater than 85%) | 5 (Level 5: the growth inhibition rate is greater than 85%)
10 | C[C@@H](Oc1nc(F)c(Cl)c(N)c1Cl)C(=O)OCC(F)F [Compound 2-279] | 5 (Level 5: the growth inhibition rate is greater than 85%) | 5 (Level 5: the growth inhibition rate is greater than 85%) | 5 (Level 5: the growth inhibition rate is greater than 85%) | 5 (Level 5: the growth inhibition rate is greater than 85%) | 5 (Level 5: the growth inhibition rate is greater than 85%)
11 | CCCCCCCCCSC(=O)[C@@H](C)Oc1nc(F)c(Cl)c(N)c1Cl [Compound 2-176] | 5 (Level 5: the growth inhibition rate is greater than 85%) | 5 (Level 5: the growth inhibition rate is greater than 85%) | 5 (Level 5: the growth inhibition rate is greater than 85%) | 5 (Level 5: the growth inhibition rate is greater than 85%) | 5 (Level 5: the growth inhibition rate is greater than 85%)
12 | CCC(CC)SC(=O)[C@@H](C)Oc1nc(F)c(Cl)c(N)c1Cl [Compound 2-98] | 5 (Level 5: the growth inhibition rate is greater than 85%) | 5 (Level 5: the growth inhibition rate is greater than 85%) | 5 (Level 5: the growth inhibition rate is greater than 85%) | 5 (Level 5: the growth inhibition rate is greater than 85%) | 5 (Level 5: the growth inhibition rate is greater than 85%)
